{"source": "a melting point compilation (Tetko et al.; mined from patent text by program, amines drawn as free bases though some values may be those of a salt)", "data": [{"units": {"melting point": "°C"}, "values": [{"smiles": "Cc1cc(O)c2c(c1O)C(=O)c1ccccc1C2=O", "melting point": "177 to 178"}, {"smiles": "CCOC(=O)c1cc(C)c(Cl)nc1Nc1ccccc1", "melting point": "116 to 118"}, {"smiles": "CC(C)(C)c1cc(-c2csc(CNc3ccccc3)n2)cc(C(C)(C)C)c1O", "melting point": "147 to 148"}, {"smiles": "COC(=O)c1ccc(NC(=O)c2cc(C(C)C)c(C(C)C)s2)cn1", "melting point": "207 to 208"}, {"smiles": "Cc1oc(-c2ccccc2)nc1COc1ccc(CCC2OC(=O)NC2=O)cc1", "note": "(stereo unspecified)", "melting point": "158 to 159"}, {"smiles": "CN1CCNC(=S)N1c1cc(Cl)cc(Cl)c1", "melting point": "240 to 241"}, {"smiles": "C#Cc1ccc(OC2CCCCO2)cc1", "note": "(stereo unspecified)", "melting point": 65}, {"smiles": "O=C(CCCl)Nc1cccc(NC(=O)Nc2ccc(N(CCCl)CCCl)cc2)c1", "melting point": "232 to 233"}, {"smiles": "CCN1C(=O)Cc2cnc(N3CCN(Cc4ccccc4)CC3)nc21", "melting point": "110 to 113"}, {"smiles": "O=Cc1ccc(CN2C(=O)c3ccccc3C2=O)c(Cl)c1", "melting point": "123 to 126"}, {"smiles": "CC(C)(C)OC(=O)NCCNC(=O)c1cc(Br)ccn1", "melting point": 134}, {"smiles": "CC1(C)NC(=O)OC12CCN(C(=O)OCc1ccccc1)CC2", "melting point": "208 to 209"}, {"smiles": "O=C1CNc2ncc(I)cc2N1Cc1ccccc1OC(F)(F)F", "melting point": 235}, {"smiles": "CC1(c2cc3ccccc3[nH]2)CCCCC1", "melting point": 50}, {"smiles": "C1=C(c2c[nH]c3ccccc23)CCN(CCc2csc3ccccc23)C1", "melting point": "195 to 198"}, {"smiles": "CC(C)n1c2ccccc2c2sccc(=O)c21", "melting point": "154 to 156"}, {"smiles": "CS(=O)c1nc(-c2ccc([N+](=O)[O-])cc2)c[nH]1", "note": "(stereo unspecified)", "melting point": "220 to 222"}, {"smiles": "COc1cc(N2CCN(C[C@H](C)O)CC2)ccc1Nc1ncc2ccc(-c3ccccc3S(C)(=O)=O)n2n1", "melting point": "98 to 100"}, {"smiles": "Cn1cnc2c1c(=O)n(CCCO)c(=O)n2C", "melting point": "139 to 140"}, {"smiles": "CCC12CCC(=O)C=C1c1c(cc(OCC(=O)OCC3COC(C)(C)O3)c(Cl)c1Cl)C2", "note": "(stereo unspecified)", "melting point": "143 to 145"}, {"smiles": "CCN(CC)CCNC(=O)c1c(O)c2cnc(-c3ccccc3)nc2n(CCOC)c1=O", "melting point": "115 to 117"}, {"smiles": "CCN1CC([N+](=O)[O-])=C(N(C)C)N(Cc2cccnc2)C1", "melting point": "97 to 98"}, {"smiles": "Cc1c(C(N)=O)c2ccccc2n2c(N3CCCC3)nc(-c3noc(C(C)C)n3)c12", "melting point": "173 to 174"}, {"smiles": "CCC1CC(=O)N(Cc2cccc(NS(C)(=O)=O)c2)N=C1c1ccc(OC)c(OC2CCCC2)c1", "note": "(stereo unspecified)", "melting point": 113}, {"smiles": "CC(CCCC(C)(C)O)C1CCC2C3CCC4(O)CC(=O)CCC4(C)C3CCC12C", "note": "(stereo unspecified)", "melting point": "215 to 217"}, {"smiles": "CCOC(=O)Cc1csc(-c2cccc(O)c2)n1", "melting point": "95.5 to 97.2"}, {"smiles": "CS(=O)(=O)c1cccc(NC(=O)c2cnn3c(Cl)cc(-c4ccc(Cl)cc4)nc23)c1", "melting point": "253 to 255"}, {"smiles": "Nc1cc2c(cc1C(=O)c1ccccc1)OCO2", "melting point": "160 to 161"}, {"smiles": "CN1c2ccc(-c3ccccc3)cc2S(=O)(=O)c2cc(-c3ccccc3)ccc21", "melting point": "242 to 245"}, {"smiles": "N#CC(=C(Nc1cc(C(F)(F)F)cc(C(F)(F)F)c1)NC1CCCC1)S(=O)(=O)c1ccc(Cl)cc1", "melting point": "199 to 200"}, {"smiles": "CCc1cccc(C)c1CNc1cc(C(=O)NCCO)nc2c1nc(C)n2C", "melting point": "256 to 258"}, {"smiles": "CCCCCCCCCCCCCCOc1ccccc1C(=O)N(CC)CC", "melting point": "31 to 32"}, {"smiles": "CCC12CCC3C4=C(CCC3C1CCC2O)CC(OC)=CC4", "note": "(stereo unspecified)", "melting point": "98 to 104"}, {"smiles": "CCCc1nn(C)c2c(=O)[nH]c(-c3cc4cccc(OCC)c4o3)nc12", "melting point": "227 to 229"}, {"smiles": "O=c1nc(Nc2ccc(C(F)(F)F)cc2)sc2ncccc12", "melting point": "280 to 283"}, {"smiles": "Cc1nc(-n2ccc(C(F)(F)F)cc2=O)sc1C(=O)NCc1ccccc1", "melting point": "197 to 198"}, {"smiles": "CCCCNS(=O)(=O)c1ccc(N2CCC(=O)CC2)cc1", "melting point": "79 to 82"}, {"smiles": "COc1cc2c(cc1OC)CC(=O)NC(=O)C2", "melting point": 235}, {"smiles": "Cc1oc(-c2ccccc2)nc1COc1ccccc1CCl", "melting point": "103 to 104"}, {"smiles": "NC(=O)c1c(-c2ccc(Cl)cc2)csc1N", "melting point": "150 to 151"}, {"smiles": "CCCCCCCCc1nc2c(N)nc3ccccc3c2n1CCOCc1ccccc1", "melting point": "110 to 111"}]}]}
